US20120052555A1, “ENRICHMENT OF LISTERIA SPP” (SAMSUNG TECHWIN CO., LTD., priority 2010, published 2012)
“Also recorded” adds a separate entry of the source.

What was measured:
[1] = system: heat-injured Listeria monocytogenes; assay: Recovery of sub-lethally heat-injured Listeria cells on Minimal Medium A1 agar; assay type: cell-based; conditions: cells heated 50° C. 10 minutes; for effect in recovering heat-injured Listeria spp.: Minimal Medium supplemented with the agent
Protocol: Most Listeria infection cases are associated with pasteurized dairy products. Therefore, the effects of the Minimal Medium A1 on the recovery of sub-lethally heat-injured Listeria spp. were investigated. Overnight-cultured Listeria monocytogenes was serially diluted by 10 folds with PBS. 1 mL of the culture suspension (about 3780 CFU) was cultured at 50° C. for 10 minutes, and 0.1 mL of the culture product was inoculated on the Minimal Medium A1 in agar plate (1.5% agar) in the presence or non-presence of selective agents.
FIG. 4 is a graph illustrating the effects of medium ingredients on the recovery of heat-injured Listeria spp. […] In FIG. 4, “Pyruvate” indicates a Minimal Medium A1 supplemented with sodium pyruvate, “A1-NONE” indicates a Minimal Medium A1 supplemented with none, and “BHI-NONE” indicates a brain heart infusion medium supplemented with none. “Acriflavine,” “Nalidixic acid,” “Polymyxin B,” “Ceftazidime” and “All” denote Minimal Media A supplemented with […], 40 mg/L of nalidixic acid, 10 mg/L of polymyxin B, 40 mg/L of ceftazidime, and all of these antibiotics, respectively.

L. grayi strains = assay: Culture of five L. grayi strains in the presence of antibiotics; assay type: cell-based, Listeria grayi; conditions: 35° C. in Minimal Media A1; 10 mg/L acriflavine, 40 mg/L nalidixic acid, 10 mg/L polymyxin B, 40 mg/L ceftazidime
Protocol: Separately, five L. grayi strains were cultured at 35° C. in the Minimal Media A1 supplemented separately with 10 mg/L of acriflavine, 40 mg/L of nalidixic acid, 10 mg/L of polymyxin B, 40 mg/L of ceftazidime, and a combination thereof. As a result, the effects of each antibiotic on the growth of L. grayi were trivial. […] The two strains reached maximum cell densities within about 24 hours.

Listeria monocytogenes = assay: Effect of LiCl concentration in Minimal Medium A1 on cell growth (PCR Cp); assay type: cell-based; conditions: LiCl 1, 3, 5, 7, 9 or 10 g/L in Minimal Medium A1
Protocol: 300 μL of overnight cultures (about of 3×10^9 CFU/ml) of Listeria monocytogenes in a brain hear infusion (BHI) medium was added into 30 mL of each of the pre-warmed media in 250 ml glass flask. Each mixture was cultured without shaking at 35° C. for 24 hours. Aliquots (20 μL) of the culture products were collected from each container after culture for 1, 2, 3, 4, 5, 6, 7, 8, 9 and 24 hours, respectively. Each culture product was treated with a TZ lysis buffer with 1 mg/ml proteinase K, and incubated at 55° C. for 15 min, 95° C. for 10 min, and cooled at 4° C. for 2 min. Cell lysates were added into the PCR mixture for real-time PCR. The PCR mixture contained forward and reverse primers of SEQ ID NOs. 5 and 6, the probe of SEQ ID No. 7, and the RNase H. The primers and probe were specific to the InlA gene of L. monocytogenes. The 5′ and 3′ ends of the probe were labeled with FAM and Iowa BFQ ([…]), respectively.
The PCR conditions were as follows: UNG activation at 37° C. for 600 seconds; Denaturation at 95° C. for 600 seconds; Denaturation at 95° C. for 15 seconds; and annealing and elongation at 60° C. for 20 seconds (50 cycles). […]

background microflora = assay: Effects of antibiotics on background microflora of ground beef (aerobic plate counts); assay type: cell-based; conditions: 10 g/L ground beef, 35° C., Minimal Media A; among the four antibiotics
Protocol: In addition, effects of antibiotics on background microflora were investigated. First, 10 g/L of ground beef was cultured at 35° C. in the Minimal Media A supplemented separately with 10 mg/L of acriflavine, 40 mg/L of nalidixic acid, 10 mg/L of polymyxin B, 40 mg/L of ceftazidime, and a combination thereof. The cell concentrations before and after culture were determined based on aerobic plate counts. The aerobic plate counts were determined by inoculating 100 μL of the culture products into Difco® Plate Count agar medium, culturing the mixture at 35° C. for 24 hours, and counting cell colonies
FIG. 3 is a graph illustrating the effects of antibiotics on background microflora. Referring to FIG. 3, the growth of the background microfluora was inhibited about 100 times more strongly when the four antibiotics were added together, than when they were used individually.

| Compound | recovery rate of heat-injured Listeria spp. ([1]; 10 g/L of sodium pyruvate compared to 10 mM of MgCl2) | effect in recovering heat-injured Listeria spp. [1] | effect on the growth of L. grayi (L. grayi strains) | effect of LiCl concentration on Cp values / cell growth (Listeria monocytogenes) | inhibitory effect on cell growth of background microflora (background microflora) |
| --- | --- | --- | --- | --- | --- |
| CC(=O)C(=O)[O-].[Na+] [sodium pyruvate] | recovery rate was improved | positive effects |  |  |  |
| polymyxin B |  | positive effects | trivial |  |  |
| acriflavine |  | positive effects | trivial |  |  |
| [Cl-].[Li+] [LiCl, lithium chloride] |  |  |  | high LiCl concentration helped recovery of Listeria; also recorded: the smaller the Cp values and the more the cell growth was enhanced |  |
| CC(C)(O/N=C(\C(=O)N[C@@H]1C(=O)N2C(C(=O)[O-])=C(C[n+]3ccccc3)CS[C@H]12)c1csc(N)n1)C(=O)O [ceftazidime] |  | positive effects | trivial |  |  |
| CCn1cc(C(=O)O)c(=O)c2ccc(C)nc21 [nalidixic acid] |  |  | trivial |  | strongest inhibitory effect on cell growth |
